Laboratory results: patent publication US9200001B2, “Triazolyl PDE10 inhibitors” (Merck Sharp & Dohme Corp., priority 2011, dated 2015)

Target: human PDE10A2 (Homo sapiens (Human), UniProt Q9Y233)
Experiment: PDE10 fluorescence polarization (IMAP FP) inhibition assay
Type: biochemical
Details: FAM-labeled cAMP 50 nM, room temperature, read-out: PDE10a Ki
Experimental: The activity of the compounds in accordance with the present invention as PDE10 inhibitors may be readily determined without undue experimentation using a fluorescence polarization (FP) methodology that is well known in the art (Huang, W., et al., J. Biomol Screen, 2002, 7: 215).
In a typical experiment the PDE10 inhibitory activity of the compounds of the present invention was determined in accordance with the following experimental method. PDE10A2 was amplified from human fetal brain cDNA (Clontech, Mountain View, Calif.) using a forward primer corresponding to nucleotides 56-77 of human PDE10A2 (Accession No. AF127480, Genbank Identifier 4894716), containing a Kozak consensus sequence, and a reverse primer corresponding to nucleotides 2406-2413 of human PDE10A2 (Accession No. AF127480, Genbank Identifier 4894716). Amplification with Easy-A polymerase (Stratagene, La Jolla, Calif.) was 95° C. for 2 minutes followed by thirty three cycles of 95° C. for 40 seconds, 55° C. for 30 seconds, and 72° C. for 2 minutes 48 seconds. Final extension was 72° C. for 7 minutes. The PCR product was TA cloned into pcDNA3.2-TOPO (Invitrogen, Carlsbad, Calif.) according to standard protocol. AD293 cells with 70-80% confluency were transiently transfected with human PDE10A2/pcDNA3.2-TOPO using Lipofectamine 2000 according to manufacturer specifications (Invitrogen, Carlsbad, Calif.). Cells were harvested 48 hours post-transfection and lysed by sonication (setting 3, 10×5 sec pulses) in a buffer containing 20 mM HEPES, 1 mM EDTA and protease inhibitor cocktail (Roche). Lysate was collected by centrifugation at 75,000×g for 20 minutes. Supernatant containing the cytoplasmic fraction was used for evaluation of PDE10A2 activity. The fluorescence polarization assay for cyclic nucleotide phosphodiesterases was performed using an IMAP® FP kit supplied by Molecular Devices, Sunnyvale, Calif. (product # R8139). IMAP® technology has been applied previously to phosphodiesterase assays (Huang, W., et al., J. Biomol Screen, 2002, 7: 215). Assays were performed at room temperature in 384-well microtiter plates with an incubation volume of 20.2 μL. Solutions of test compounds were prepared in DMSO and serially diluted with DMSO to yield 8 μL of each of 10 solutions differing by 3-fold in concentration, at 32 serial dilutions per plate. 100% inhibition is determined using a known PDE10 inhibitor, which can be any compound that is present at 5,000 times its Ki value in the assay described as follows, such as papaverine (see Siuciak, et al. Neuropharmacology (2006) 51:386-396; Becker, et al. Behav Brain Res (2008) 186(2):155-60; Threlfell, et al., J Pharmacol Exp Ther (2009) 328(3):785-795), 2-{4-[pyridin-4-yl-1-(2,2,2-trifluoroethyl)-1H-pyrazol-3-yl]phenoxymethyl}quinoline succinic acid or 2-[4-(1-methyl-4-pyridin-4-yl-1H-pyrazol-3-yl)-phenoxymethyl]quinoline succinic acid (see Schmidt, et al. J Pharmacol Exp Ther (2008) 325:681-690; Threlfall, et al., J Pharmacol Exp Ther (2009) 328(3): 785-795). 0% of inhibition is determined by using DMSO (1% final concentrations).
A Labcyte Echo 555 (Labcyte, Sunnyvale, Calif.) is used to dispense 200 nL from each well of the titration plate to the 384 well assay plate. A solution of enzyme (1/1600 dilution from aliquots; sufficient to produce 20% substrate conversion) and a separate solution of FAM-labeled cAMP PDE from Molecular Devices (product # R7506), at a final concentration of 50 nM are made in the assay buffer (10 mM Tris HCl, pH 7.2, 10 mM MgCl2, 0.05% NaN3 0.01% Tween-20, and 1 mM DTT). The enzyme and the substrate are then added to the assay plates in two consecutive additions of 10 μL, and then shaken to mix. The reaction is allowed to proceed at room temperature for 30 minutes. A binding solution is then made from the kit components, comprised of 80% Solution A, 20% Solution B and binding reagent at a volume of 1600 the total binding solution. […]

Chain of human PDE10A2 (Q9Y233 267-1055): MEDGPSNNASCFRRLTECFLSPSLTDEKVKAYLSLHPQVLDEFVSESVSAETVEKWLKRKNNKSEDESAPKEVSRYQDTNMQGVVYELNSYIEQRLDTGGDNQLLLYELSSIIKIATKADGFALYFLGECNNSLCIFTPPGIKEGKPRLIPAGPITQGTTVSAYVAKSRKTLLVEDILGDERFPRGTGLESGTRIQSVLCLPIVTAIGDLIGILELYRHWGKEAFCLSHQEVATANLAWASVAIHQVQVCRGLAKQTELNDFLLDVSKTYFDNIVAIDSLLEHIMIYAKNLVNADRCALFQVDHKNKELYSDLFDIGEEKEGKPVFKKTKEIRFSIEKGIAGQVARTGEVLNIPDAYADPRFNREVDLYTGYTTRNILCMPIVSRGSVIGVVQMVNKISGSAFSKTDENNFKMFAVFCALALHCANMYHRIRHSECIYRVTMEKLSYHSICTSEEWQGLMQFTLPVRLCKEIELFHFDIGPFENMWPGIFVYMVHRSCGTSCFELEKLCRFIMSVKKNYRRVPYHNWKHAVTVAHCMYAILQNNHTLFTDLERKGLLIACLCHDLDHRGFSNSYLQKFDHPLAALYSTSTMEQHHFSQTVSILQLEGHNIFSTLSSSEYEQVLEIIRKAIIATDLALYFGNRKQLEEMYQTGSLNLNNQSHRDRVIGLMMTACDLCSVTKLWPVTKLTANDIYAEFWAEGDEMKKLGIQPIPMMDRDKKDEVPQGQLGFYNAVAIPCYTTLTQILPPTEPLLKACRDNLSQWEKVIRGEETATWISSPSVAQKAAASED

Structure (SMILES) | Ki
Cc1nc(C)n(-c2cc([C@@H]3C[C@H]3c3nc4ccccc4n3C)nc(C(C)(C)O)n2)n1 [Cpd 131, 2-(4-(3,5-dimethyl-1H-1,2,4-triazol-1-yl)-6-((1R,2R)-2-(1-methyl-1H-benzo[d]imidazol-2-yl)cyclopropyl)pyrimidin-2-yl)propan-2-ol] | 0.88 nM
Cc1nc(C2CC2c2nnc(C)s2)cc(-n2nc(C)nc2C)n1 (centres unmarked) [Cpd 40, 2-(2-(6-(3,5-dimethyl-1H-1,2,4-triazol-1-yl)-2-methylpyrimidin-4-yl)cyclopropyl)-5-methyl-1,3,4-thiadiazole] | 124 nM
COc1ccc(Cc2nc(C)nn2-c2cc(C#Cc3ccc4ncccc4n3)nc(C)n2)cc1OC [Cpd 14, 2-((6-(5-(3,4-dimethoxybenzyl)-3-methyl-1H-1,2,4-triazol-1-yl)-2-methylpyrimidin-4-yl)ethynyl)-1,5-naphthyridine] | 0.82 nM
Cc1nc(C)n(-c2cc([C@H]3C[C@@H]3c3nc4ccccc4n3C)nc(NC(C)(C)C)n2)n1 (relative stereo) [Cpd 118, trans-N-tert-butyl-4-(3,5-dimethyl-1H-1,2,4-triazol-1-yl)-6-[2-(1-methyl-1H-benzimidazol-2-yl)cyclopropyl]pyrimidin-2-amine] | 1.7 nM
Cc1nc(C2CC2c2nc3ccc(OC(F)F)cc3[nH]2)cc(-n2nc(C)nc2C)n1 (centres unmarked) [Cpd 60, 6-(difluoromethoxy)-2-(2-(6-(3,5-dimethyl-1H-1,2,4-triazol-1-yl)-2-methylpyrimidin-4-yl)cyclopropyl)-1H-benzo[d]imidazole] | 58.2 nM
COc1ccc(Cc2nc(C)nn2-c2cc(/C=C/c3ccccn3)nc(C)n2)cc1OC [Cpd 19, (E)-4-(5-(3,4-dimethoxybenzyl)-3-methyl-1H-1,2,4-triazol-1-yl)-2-methyl-6-(2-(pyridin-2-yl)vinyl)pyrimidine] | 0.002 nM
Cc1cc(-n2nc(C)nc2C)cc([C@@H]2C[C@H]2c2nc3ccccc3n2C)n1 (relative stereo) [Cpd 108, trans-2-{2-[4-(3,5-dimethyl-1H-1,2,4-triazol-1-yl)-6-methylpyridin-2-yl]cyclopropyl}-1-methyl-1H-benzimidazole] | 14.2 nM
COc1ccc(Cc2nc(C)nn2-c2cc(/C=C/c3ccc4ncccc4n3)nc(C)n2)cc1OC [Cpd 13, (E)-2-(2-(6-(5-(3,4-dimethoxybenzyl)-3-methyl-1H-1,2,4-triazol-1-yl)-2-methylpyrimidin-4-yl)vinyl)-1,5-naphthyridine] | 0.01 nM
Cc1nc([C@H]2C[C@@H]2c2nc3ccccc3n2C)cc(-n2nc(C)nc2C2CC2)n1 (stereo in doubt) [Cpd 85, 2-{2-[6-(5-cyclopropyl-3-methyl-1H-1,2,4-triazol-1-yl)-2-methylpyrimidin-4-yl]cyclopropyl}-1-methyl-1H-benzimidazole] | 2.9 nM
Cc1nc(CCc2ccc3ncccc3n2)cc(-n2nc(C)nc2C)n1 [Cpd 99, 2-{2-[6-(3,5-dimethyl-1H-1,2,4-triazol-1-yl)-2-methylpyrimidin-4-yl]ethyl}-1,5-naphthyridine] | 73 nM
Cc1nc(C)n(-c2cc([C@H]3C[C@@H]3c3nc4ccccc4n3C)nc(C(F)(F)F)n2)n1 (relative stereo) [Cpd 109, trans-2-{2-[6-(3,5-dimethyl-1H-1,2,4-triazol-1-yl)-2-(trifluoromethyl)pyrimidin-4-yl]cyclopropyl}-1-methyl-1H-benzimidazole] | 1.4 nM
Cc1nc(C)n(-c2cc([C@@H]3C[C@H]3c3nc4ccccc4n3C)nc(N3CC[C@@H](F)C3)n2)n1 [Cpd 134, 2-((1R,2R)-2-(6-(3,5-dimethyl-1H-1,2,4-triazol-1-yl)-2-((R)-3-fluoropyrrolidin-1-yl)pyrimidin-4-yl)cyclopropyl)-1-methyl-1H-benzo[d]imidazole] | 0.58 nM
CCc1nc(CC)n(-c2cc([C@@H]3C[C@H]3c3nc4ccccc4n3C)nc(C)n2)n1 [Cpd 106, 2-{(1R,2R)-2-[6-(3,5-diethyl-1H-1,2,4-triazol-1-yl)-2-methylpyrimidin-4-yl]cyclopropyl}-1-methyl-1H-benzimidazole] | 2.8 nM
Cc1nc([C@H]2C[C@@H]2c2nc3ccccc3n2C)cc(-n2nc(C)nc2CN(C)C)n1 (stereo in doubt) [Cpd 87, N,N-dimethyl-1-(3-methyl-1-{2-methyl-6-[2-(1-methyl-1H-benzimidazol-2-yl)cyclopropyl]pyrimidin-4-yl}-1H-1,2,4-triazol-5-yl)methanamine] | 10.6 nM
Cc1nc(C)n(-c2cc([C@@H]3C[C@H]3c3nc4ccccc4n3C)nc(OCCO)n2)n1 [Cpd 64, 2-({4-(3,5-dimethyl-1H-1,2,4-triazol-1-yl)-6-[(1R,2R)-2-(1-methyl-1H-benzimidazol-2-yl)cyclopropyl]pyrimidin-2-yl}oxy)ethanol] | 1.09 nM
Cc1nc([C@H]2C[C@@H]2c2nc3ccccc3s2)cc(-n2nc(C)nc2C)n1 [Cpd 104, 2-{(1S,2S)-2-[6-(3,5-dimethyl-1H-1,2,4-triazol-1-yl)-2-methylpyrimidin-4-yl]cyclopropyl}-1,3-benzothiazole] | 69.5 nM
Cc1nc([C@@H]2C[C@H]2c2nc3ccccc3n2C)cc(-n2nc(Br)nc2C)n1 [Cpd 88, 2-{(1R,2R)-2-[6-(3-bromo-5-methyl-1H-1,2,4-triazol-1-yl)-2-methylpyrimidin-4-yl]cyclopropyl}-1-methyl-1H-benzimidazole] | 2 nM
COc1ccc(Cc2nc(C)nn2-c2cc(C3CC3c3cc4n(n3)CCC4)nc(C)n2)cc1OC (centres unmarked) [Cpd 42, 2-(2-(6-(5-(3,4-dimethoxybenzyl)-3-methyl-1H-1,2,4-triazol-1-yl)-2-methylpyrimidin-4-yl)cyclopropyl)-5,6-dihydro-4H-pyrrolo[1,2-b]pyrazole] | 0.5 nM
Cc1nc([C@@H]2C[C@H]2c2nc3ccccc3n2Cc2cccnc2)cc(-n2nc(C)nc2C)n1 (stereo in doubt) [Cpd 74, 2-{2-[6-(3,5-dimethyl-1H-1,2,4-triazol-1-yl)-2-methylpyrimidin-4-yl]cyclopropyl}-1-(pyridin-3-ylmethyl)-1H-benzimidazole] | 9.9 nM
Cc1nc(C)n(-c2cc([C@H]3C[C@@H]3c3nc4ccccc4n3C)cnn2)n1 (relative stereo) [Cpd 128, trans-2-{2-[6-(3,5-dimethyl-1H-1,2,4-triazol-1-yl)pyridazin-4-yl]cyclopropyl}-1-methyl-1H-benzimidazole] | 38 nM
Cc1nc([C@H]2C[C@@H]2c2nnc(-c3ccn(C)n3)s2)cc(-n2nc(C)nc2C)n1 [Cpd 105, 4-(3,5-dimethyl-1H-1,2,4-triazol-1-yl)-2-methyl-6-{(1S,2S)-2-[5-(1-methyl-1H-pyrazol-3-yl)-1,3,4-thiadiazol-2-yl]cyclopropyl}pyrimidine] | > 75 nM
Cc1nc(C2CC2c2nc3cccc(C)c3[nH]2)cc(-n2nc(C)nc2C)n1 (centres unmarked) [Cpd 55, 2-(2-(6-(3,5-dimethyl-1H-1,2,4-triazol-1-yl)-2-methylpyrimidin-4-yl)cyclopropyl)-7-methyl-1H-benzo[d]imidazole] | 16.8 nM
Cc1nc([C@H]2C[C@@H]2c2nc3ccccc3[nH]2)cc(-n2nc(C)nc2C)n1 [Cpd 90, 2-{(1S,2S)-2-[6-(3,5-dimethyl-1H-1,2,4-triazol-1-yl)-2-methylpyrimidin-4-yl]cyclopropyl}-1H-benzimidazole] | 38 nM
